Results taken from patent US20090105349A1, “ANDROGEN MODULATORS” (WARNER-LAMBERT COMPANY LLC, priority 2004, published 2009).
Substitutions are numbered along the chain they refer to. pIC50: −log10 of the molar value. Like-named read-outs stand apart in the source and are kept apart here.

Columns and labels:
[1] = target: T1, androgen receptor in MDA-MB453-MMTV clone 54-19 cells (Homo sapiens, UniProt P10275); test: AR antagonist cell assay (MMTV-luciferase reporter); format: cell-based
T1 sequence (P10275 1-920 Q868H): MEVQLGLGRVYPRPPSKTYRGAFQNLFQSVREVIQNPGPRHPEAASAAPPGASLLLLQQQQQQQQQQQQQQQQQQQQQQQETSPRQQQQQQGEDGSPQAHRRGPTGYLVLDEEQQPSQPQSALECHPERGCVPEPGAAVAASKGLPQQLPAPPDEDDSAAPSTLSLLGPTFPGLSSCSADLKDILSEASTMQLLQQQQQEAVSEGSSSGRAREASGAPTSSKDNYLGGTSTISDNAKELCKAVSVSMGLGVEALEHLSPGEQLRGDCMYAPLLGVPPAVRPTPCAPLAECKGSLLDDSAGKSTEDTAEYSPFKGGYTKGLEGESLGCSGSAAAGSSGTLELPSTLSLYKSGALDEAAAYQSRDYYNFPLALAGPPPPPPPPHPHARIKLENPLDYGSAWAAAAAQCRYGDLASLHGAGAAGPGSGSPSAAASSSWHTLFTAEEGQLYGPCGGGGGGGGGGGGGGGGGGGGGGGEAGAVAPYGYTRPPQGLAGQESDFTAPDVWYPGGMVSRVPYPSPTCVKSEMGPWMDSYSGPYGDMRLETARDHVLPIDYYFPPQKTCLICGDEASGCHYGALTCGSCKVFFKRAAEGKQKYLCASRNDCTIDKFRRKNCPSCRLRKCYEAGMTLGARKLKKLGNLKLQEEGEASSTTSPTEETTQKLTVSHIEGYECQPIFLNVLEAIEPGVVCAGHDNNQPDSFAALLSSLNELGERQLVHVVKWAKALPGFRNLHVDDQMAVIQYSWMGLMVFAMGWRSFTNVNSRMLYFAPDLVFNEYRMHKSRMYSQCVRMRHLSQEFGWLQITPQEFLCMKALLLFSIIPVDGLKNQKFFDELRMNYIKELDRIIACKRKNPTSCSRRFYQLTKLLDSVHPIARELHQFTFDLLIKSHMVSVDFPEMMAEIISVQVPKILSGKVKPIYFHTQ
Method: The compounds ability to antagonize the effects of androgen on the androgen receptor were determined in a whole cell assay as described immediately below.
This cell line is a stable transfected cell line with MDA-MB453 cell background (a human breast tumor cell line expressing androgen receptor). A MMTV minimal promoter containing ARE was first cloned in front of a firefly luciferase reporter gene. Then the cascade was cloned into transfection vector pUV120puro. […] Puromycin resistant stable cell line was selected.
Plating medium: DMEM (phenol red free), 10% charcoal treated HyClone serum, 1% L-glutamine
Assay medium: DMEM (phenol red free), 1% charcoal treated HyClone serum, 1% L-glutamine, and 1% penicillin/streptomycin
Assay procedure: • 1. Cells are maintained in culture medium, splitting cells when they reach 80-90% confluence • 2. To test compounds, 10,000 cells/well are plated to opaque 96 cell culture plate in 100 ul/well plating medium, culture for overnight at 37° C. in cell culture incubator • 3. […] Add 10 ul/well freshly prepared DHT (final concentration at […]) to each well, incubate at 37° C. for 17 hr (overnight) • 5.
The results are reported as the mean of multiple tests as described below (the numbers of tests are indicated in the footnote). N.D. denotes that the compound was not tested.

[2] = target: T2, hAR (human androgen receptor) (Homo sapiens, UniProt P10275); test: Competitive hAR binding assay with 3H-DHT tracer
T2 construct: made in house; host or cells: baculovirus/Sf9 insect cells (crude extract)
T2 sequence (P10275 1-920): T1 sequence (P10275 1-920 Q868H) with H868Q
Method: The description below describes how the assay was carried out.
Competitive binding analysis was performed on baculovirus/Sf9 generated hAR extracts in the presence or absence of different concentrations of test agent and a fixed concentration of ^3H-dihydrotestosterone (3H-DHT) as tracer. […] Subsequently, the binding reactions are washed three times to completely remove excess unbound ^3H-DHT. hAR bound ^3H-DHT levels are determined in the presence of compounds (i.e. competitive binding) and compared to levels bound when no competitor is present (i.e. maximum binding). Compound binding affinity to the hAR is expressed as the concentration of compound at which one half of the maximum binding is inhibited.

[3] = read-out: AR Cell IC50; MDA-MB453-MMTV clone 54-19, inhibition of DHT induced luciferase, 17 hr; mean of multiple tests
[4] = baculovirus/Sf9 hAR extract, 1 nM 3H-DHT, one hour at 4° C, mean of multiple tests, read-out: AR Binding IC50
[5] = MDA-MB453-MMTV clone 54-19, inhibition of DHT induced luciferase, 17 hr; mean of multiple tests; read-out: AR Cell IC50

SMILES | pIC50 [1, 3] | pIC50 [2, 4] | pIC50 [1, 5] | pIC50 [2]
CC(=O)c1c(O)cccc1Oc1ccc(C#N)c(C(F)(F)F)c1 [Example 85, 4-(2-Acetyl-3-hydroxy-phenoxy)-2-trifluoromethyl-benzonitrile] | 8.40 | 6.95 | – | –
CSc1ccc(Oc2ccc(C#N)c(Cl)c2)c(C)c1 [Example 59, 2-Chloro-4-(2-methyl-4-methylsulfanyl-phenoxy)-benzonitrile] | – | 6.57 | 6.76 | –
Cc1cc(F)ccc1Oc1ccc(C#N)c(Cl)c1 [Example 60, 2-Chloro-4-(4-fluoro-2-methyl-phenoxy)-benzonitrile] | 7.14 | – | – | 7.32
N#Cc1ccc(Oc2cccc3ccccc23)cc1Cl [Example 40, 2-Chloro-4-(naphthalen-1-yloxy)-benzonitrile] | 7.05 | – | – | 7.51
CCc1cccc(Oc2ccc(C#N)c(Cl)c2)c1 [Example 34, 2-Chloro-4-(3-ethyl-phenoxy)-benzonitrile] | – | 6.74 | 6.03 | –
CC(O)c1cc(F)ccc1Oc1ccc(C#N)c(C(F)(F)F)c1 (stereo not shown) [Example 119, 4-[4-Fluoro-2-(1-hydroxy-ethyl)-phenoxy]-2-trifluoromethyl-benzonitrile] | – | 6.55 | 6.34 | –
N#Cc1ccc(Oc2cccc3c2CCCC3)cc1Cl [Example 32, 2-Chloro-4-(5,6,7,8-tetrahydro-naphthalen-1-yloxy)-benzonitrile] | – | – | 6.33 | 7.03
CC(C)c1ccccc1Oc1ccc(C#N)c(Cl)c1 [Example 39, 2-Chloro-4-(2-isopropyl-phenoxy)-benzonitrile] | – | – | 6.60 | 7.37
N#Cc1ccc(Oc2ccccc2C#N)cc1Cl [Example 65, 2-Chloro-(2-cyano-phenoxy)-benzonitrile] | 9.49 | – | – | 7.85
COc1cc(C#N)ccc1Oc1ccccc1C [Example 125, 3-Methoxy-4-o-tolyloxy-benzonitrile] | – | 6.36 | 7.30 | –
Cc1ccc(C(C)C)c(Oc2ccc(C#N)c(Cl)c2)c1 [Example 49, 2-Chloro-4-(2-isopropyl-5-methyl-phenoxy)-benzonitrile] | – | – | 6.11 | 7.10
N#Cc1ccc(Oc2ccccc2-c2ccccc2)cc1Cl [Example 69, 4-(Biphenyl-2-yloxy)-2-chloro-benzonitrile] | – | 6.80 | < 6.00 | –
CCC(C)c1ccccc1Oc1ccc(C#N)c(Cl)c1 (stereo not shown) [Example 48, 4-(2-sec-Butyl-phenoxy)-2-chloro-benzonitrile] | – | 6.74 | < 6.00 | –
CCc1ccccc1Oc1ccc(C#N)c(Cl)c1 [Example 35, 2-Chloro-4-(2-ethyl-phenoxy)-benzonitrile] | – | – | 6.44 | 7.70
N#Cc1ccc(Oc2ccc(F)cc2F)c(Cl)c1 [Example 25, 3-Chloro-4-(2,4-difluoro-phenoxy)-benzonitrile] | – | 6.43 | 6.10 | –
COc1cc(F)ccc1Oc1ccc(C#N)c(Cl)c1 [Example 56, 2-Chloro-4-(4-fluoro-2-methoxy-phenoxy)-benzonitrile] | 7.96 | – | – | 8.22
COc1cc(Oc2ccccc2C)ccc1C#N [Example 117, 2-Methoxy-4-o-tolyloxy-benzonitrile] | – | 7.28 | 7.59 | –
CC(=O)c1cc(F)ccc1Oc1ccc(C#N)c(C(F)(F)F)c1 [Example 120, 4-(2-Acetyl-4-fluoro-phenoxy)-2-trifluoromethyl-benzonitrile] | – | 6.65 | 6.44 | –
Cc1ccc(C(C)C)cc1Oc1ccc(C#N)c(Cl)c1 [Example 53, 2-Chloro-4-(5-isopropyl-2-methyl-phenoxy)-benzonitrile] | – | 6.72 | 6.21 | –
N#Cc1ccc(Oc2ccc(C#N)c(C(F)(F)F)c2)cc1C#N [Example 100, 4-(4-Cyano-3-trifluoromethyl-phenoxy)-phthalonitrile] | – | 6.76 | 6.09 | –
COc1ccc(Oc2ccc(C#N)c(C(F)(F)F)c2)c(C(C)=O)c1 [Example 90, 4-(2-Acetyl-4-methoxy-phenoxy)-2-trifluoromethyl-benzonitrile] | – | 6.69 | 6.32 | –
N#Cc1ccc(Oc2ccc(F)cc2F)cc1Cl [Example 36, 2-Chloro-4-(2,4-difluoro-phenoxy)-benzonitrile] | – | – | 6.84 | 7.28
N#CCOc1ccccc1Oc1ccc(C#N)c(C(F)(F)F)c1 [Example 123, 4-(2-cyanomethoxy-phenoxy)-2-trifluoromethyl-benzonitrile] | 7.27 | 6.85 | – | –
Cc1cccc(C)c1Oc1ccc(C#N)cc1Cl [Example 16, 3-Chloro-4-(2,,6-dimethyl-phenoxy)-benzonitrile] | – | – | 6.79 | 7.80
N#Cc1ccc(Oc2ccccc2C(F)(F)F)cc1C(F)(F)F [Example 108, 2-Trifluoromethyl-4-(2-trifluoromethyl-phenoxy)-benzonitrile] | – | – | < 6.00 | 7.24
COc1cccc(OC)c1Oc1ccc(C#N)cc1Cl [Example 26, 3-Chloro-4-(2,6-dimethoxy-phenoxy)-benzonitrile] | 7.27 | 6.97 | – | –
N#Cc1ccc(Oc2c(F)cccc2F)cc1C(F)(F)F [Example 121, 4-(2,6-Difluoro-phenoxy)-2-trifluoromethyl-benzonitrile] | 7.77 | – | – | 7.20
N#Cc1ccc(Oc2ccccc2C(F)(F)F)cc1Cl [Example 64, 4-(2-Trifluoromethyl-phenoxy)-2-chloro-benzonitrile] | – | – | 6.07 | 7.47
COc1cccc(F)c1Oc1ccc(C#N)cc1Cl [Example 19, 3-Chloro-4-(2-fluoro-6-methoxy-phenoxy)-benzonitrile] | 7.28 | – | – | 7.55
